The text below walks through data of US11220504B2, “Pyrrolo[3,2-d] pyrimidine derivatives for the treatment of viral infections and other diseases” (JANSSEN SCIENCES IRELAND UNLIMITED COMPANY, priority 2012, dated 2022).

The target of test [1] is T1, human TLR7 (Homo sapiens, UniProt Q9NYK1).
T1 construct: expressed in transfected cells; host or cells: HEK293 cells, transient transfection with CMV-TLR7 plasmid and NFκB-luc plasmid
T1 sequence (Q9NYK1 27-1049): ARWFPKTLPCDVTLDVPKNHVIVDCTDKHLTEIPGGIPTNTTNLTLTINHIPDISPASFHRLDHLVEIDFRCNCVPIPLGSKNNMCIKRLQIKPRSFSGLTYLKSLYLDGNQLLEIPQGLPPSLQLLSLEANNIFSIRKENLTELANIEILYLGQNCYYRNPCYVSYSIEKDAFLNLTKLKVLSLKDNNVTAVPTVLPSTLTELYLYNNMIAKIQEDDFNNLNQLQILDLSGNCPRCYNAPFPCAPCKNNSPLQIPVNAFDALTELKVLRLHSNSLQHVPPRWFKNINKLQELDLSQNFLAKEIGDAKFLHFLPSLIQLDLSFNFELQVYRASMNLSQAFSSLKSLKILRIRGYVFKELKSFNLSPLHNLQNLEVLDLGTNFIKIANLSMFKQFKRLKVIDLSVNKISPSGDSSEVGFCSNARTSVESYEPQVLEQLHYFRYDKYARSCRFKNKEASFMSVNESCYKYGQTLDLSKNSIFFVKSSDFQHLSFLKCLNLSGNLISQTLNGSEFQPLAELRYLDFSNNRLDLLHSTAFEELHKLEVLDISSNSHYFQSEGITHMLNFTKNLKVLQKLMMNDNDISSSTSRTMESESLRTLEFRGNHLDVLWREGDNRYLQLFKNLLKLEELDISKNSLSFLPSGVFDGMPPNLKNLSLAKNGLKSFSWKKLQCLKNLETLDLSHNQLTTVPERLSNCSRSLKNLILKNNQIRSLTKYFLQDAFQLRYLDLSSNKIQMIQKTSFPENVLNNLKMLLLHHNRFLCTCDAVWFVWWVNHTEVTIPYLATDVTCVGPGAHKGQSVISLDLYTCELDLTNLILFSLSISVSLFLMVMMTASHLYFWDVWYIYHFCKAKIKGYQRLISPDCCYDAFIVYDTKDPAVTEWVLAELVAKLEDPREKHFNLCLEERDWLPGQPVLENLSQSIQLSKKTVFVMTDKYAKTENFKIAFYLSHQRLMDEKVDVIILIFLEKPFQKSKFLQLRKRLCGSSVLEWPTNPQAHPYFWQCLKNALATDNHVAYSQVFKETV
The test is described as follows: TLR7 cellular reporter assay (HEK293, NFκB-luc). The test is classed as cell-based. The conditions noted are these: HEK293 cells transfected with CMV-TLR7 and NFκB-luc, 6 hours incubation; lowest effective concentration. The method, boiled down:
(§1)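 HEK293 cells transiently transfected with receptor expression vector plus NFκB-luciferase reporter, exposed to compound (added in 4% DMSO) for 6 hours at 37° C, 5% CO2. Luciferase activity measured by luminescence; dose-response curves from quadruplicate measurements.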

Test [2] deals with T2, human TLR8 (Homo sapiens, UniProt Q9NR97).
T2 construct: expressed in transfected cells; host or cells: HEK293 cells, transient transfection with TLR8 plasmid and NFκB-luc plasmid
T2 sequence (Q9NR97 27-1041): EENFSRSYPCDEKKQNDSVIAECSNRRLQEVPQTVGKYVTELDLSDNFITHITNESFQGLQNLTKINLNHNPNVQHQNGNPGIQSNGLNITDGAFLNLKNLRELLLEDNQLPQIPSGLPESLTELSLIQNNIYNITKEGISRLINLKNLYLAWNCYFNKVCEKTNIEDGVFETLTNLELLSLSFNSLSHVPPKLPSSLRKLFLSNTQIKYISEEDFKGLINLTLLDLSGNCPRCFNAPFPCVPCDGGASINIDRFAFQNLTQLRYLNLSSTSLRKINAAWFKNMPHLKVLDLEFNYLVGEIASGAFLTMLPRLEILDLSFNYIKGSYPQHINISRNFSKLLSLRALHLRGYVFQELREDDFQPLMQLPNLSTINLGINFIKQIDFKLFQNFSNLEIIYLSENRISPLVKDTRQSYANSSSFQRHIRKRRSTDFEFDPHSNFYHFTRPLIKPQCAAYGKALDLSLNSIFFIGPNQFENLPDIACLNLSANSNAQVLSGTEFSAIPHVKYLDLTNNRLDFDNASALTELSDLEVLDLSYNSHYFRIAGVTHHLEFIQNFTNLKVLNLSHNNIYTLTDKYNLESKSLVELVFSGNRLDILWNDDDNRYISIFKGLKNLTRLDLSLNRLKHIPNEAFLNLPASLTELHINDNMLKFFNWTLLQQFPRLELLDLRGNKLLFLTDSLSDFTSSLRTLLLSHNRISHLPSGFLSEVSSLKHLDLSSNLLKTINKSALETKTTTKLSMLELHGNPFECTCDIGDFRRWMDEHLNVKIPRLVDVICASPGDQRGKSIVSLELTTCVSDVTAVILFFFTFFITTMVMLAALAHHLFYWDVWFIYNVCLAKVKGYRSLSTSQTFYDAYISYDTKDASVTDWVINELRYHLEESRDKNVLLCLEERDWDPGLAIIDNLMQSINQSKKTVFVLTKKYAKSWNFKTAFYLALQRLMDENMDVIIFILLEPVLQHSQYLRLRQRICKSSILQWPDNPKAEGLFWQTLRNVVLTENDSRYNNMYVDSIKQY
As to the kind of experiment: TLR8 cellular reporter assay (HEK293, NFκB-luc). The class given is cell-based. Particulars: HEK293 cells transfected with CMV-TLR8 and NFκB-luc, 6 hours incubation; lowest effective concentration. The method, boiled down: as §1
For orientation: Reporter assays use an easily measured gene product as a stand-in for the process of interest.

The test system of test [3] is interferon-stimulated responsive elements (ISRE). As to the kind of experiment: Activation of ISRE promoter elements by conditioned media from PBMC (HEK-ISREluc). The test is classed as cell-based, human. Particulars: Homo sapiens; conditioned media from PBMC transferred to HEK-ISREluc cells, 24 hours; lowest effective concentration; read-out: PBMC LEC. The method in brief:
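Human PBMCs (≥2 donors, RPMI + 10% human AB serum, 2×10^5 cells/well) incubated overnight with compound; supernatant transferred to HEK293 cells stably carrying pISRE-Luc for 24 h, then luciferase read. LEC = compound concentration on PBMCs giving luciferase signal at least two-fold above assay SD; recombinant IFN-α-2a standard.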

Structures are written as SMILES. Bounds are passed on as bounds.

Regarding `Cc1nc(CNc2nc(N)nc3ccn(Cc4cnccn4)c23)no1` [Compound 204], in test [1], the “TLR7 LEC” value stood at 1.78 µM. In test [2], the “TLR8 LEC” value was above 25 µM. The minimal effective concentration in test [3] was 0.188 µM.
Taken in the same sequence, the figures for `COc1ccccc1Cn1ccc2nc(N)nc(NCc3noc(C)n3)c21` [Compound 205] were below 0.01 µM, 7.7 µM and 0.001 µM.
Taken in the same sequence, the figures for `COC[C@H](C)Nc1nc(N)nc2ccn(Cc3csc(C)n3)c12` [Compound 206] were 0.74 µM, 15 µM and 0.129 µM.
Taken in the same sequence, the figures for `COCc1nc(CNc2nc(N)nc3ccn(Cc4ccccn4)c23)no1` [Compound 208] were 5.14 µM, above 25 µM and 0.402 µM.
As for `COc1cc(OC)nc(Cn2ccc3nc(N)nc(NCc4noc(C)n4)c32)n1` [Compound 209], the “TLR7 LEC” value in test [1] came out at 0.04 µM. Moreover, the “TLR8 LEC” value in test [2] was above 25 µM. In addition, the minimal effective concentration in test [3] stood at 0.008 µM.
Taken in the same sequence, the figures for `COc1cc(OC)nc(Cn2ccc3nc(N)nc(NCc4ncc(C)o4)c32)n1` [Compound 210] were 0.02 µM, above 25 µM and 0.003 µM.
Taken in the same sequence, the figures for `COC[C@H](C)Nc1nc(N)nc2ccn(Cc3ccccn3)c12` [Compound 211] were 6.94 µM, 22 µM and 0.47 µM.
Taken in the same sequence, the figures for `COCCn1ccc2nc(N)nc(NC(C)COC)c21` (stereo not drawn) [Compound 212] were 7.60 µM, above 25 µM and 2.09 µM.
For `COc1cccnc1Cn1ccc2nc(N)nc(NCc3ncc(C)o3)c21` [Compound 213], the “TLR7 LEC” value in test [1] is below 0.01 µM. Also, in test [2], the “TLR8 LEC” value is above 25 µM. Besides, in test [3], the minimal effective concentration worked out at 0.001 µM.
Taken in the same sequence, the figures for `COc1ccccc1Cn1ccc2nc(N)nc(NCc3ncc(C)s3)c21` [Compound 215] were below 0.01 µM, above 25 µM and 0.001 µM.
